Data set [1] deals with recombinant human Estrogen Receptor alpha ligand binding domain (ER alpha-LBD (GST)) (Homo sapiens (Human), UniProt P03372). Put plainly: ERα binding assay (LanthaScreen TR-FRET competition). As to conditions: TR-FRET, displacement of Fluormone ES2. The essentials:
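Competition binding to GST-tagged human ERα ligand-binding domain, read by LanthaScreen TR-FRET: Tb-anti-GST antibody labels the receptor and compounds displace a fluorescent tracer, lowering the signal. IC50 was taken from dose-response curve fitting.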

Data set [2] addresses Estrogen Receptor (ERα) in MCF-7 cells (Homo sapiens (Human), UniProt P03372). The data set is described as follows: MCF-7 ER down-regulation assay (immuno-fluorescence). It is filed as cell-based. In a few lines: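 Compounds dispensed acoustically from DMSO stocks onto MCF-7 cells; cells fixed 20 min at room temperature, then automated immunostaining for ERα with overnight incubation at 4° C. Read-out is mean total ER fluorescence intensity normalized to cell number (intensity per cell), with curve fitting for concentration-response values.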

The target in data set [3] is estrogen receptor (ERα) in CAMA-1 cells (Homo sapiens (Human), UniProt P03372). Put plainly: Western blotting assay, ER down-regulation in CAMA-1. It is filed as cell-based. As to conditions: 100 nM compound, 48 h, normalised to 100 nM fulvestrant. In a few lines:
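Cells treated with compounds at 100 nM or 0.1% DMSO vehicle for 48 h at 37 °C, then lysed; ERα detected by western blot with anti-ERα (SP1) rabbit monoclonal. Down-regulation normalised to vehicle (0%) and 100 nM fulvestrant (100%) run on the same gel.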
(In general: A western blot detects proteins with antibodies after separation by electrophoresis.)

Data set [4] can be described thus: log D (shake flask, 1-octanol/aqueous buffer). It is filed as physicochemical. As to conditions: pH 7.4, 1-octanol/aqueous buffer. The essentials:
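Distribution between 1-octanol and aqueous buffer at pH 7.4 was measured by shake flask, with compounds run in mixtures of ten. Relative concentrations in each phase were quantified by UPLC with quantitative MS. Caffeine served as a low-log D QC sample in all runs.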

Data set [5] in a line: Thermodynamic solubility (shake-flask). It is filed as physicochemical. The conditions noted are these: aqueous phosphate buffer, 25 °C, pH 7.4, aqueous buffer, thermodynamic from solid, aqueous phosphate buffer pH 7.4, 24 hours. In a few lines: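 Shake-flask method starting from 10 mM DMSO stocks, which are dried before use. Residue equilibrated 24 h at 25° C. in aqueous phosphate buffer, pH 7.4. Dissolved fraction separated and quantified by UPLC/MS/MS, with QC samples in each run.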

Data set [6] in a line: Human plasma protein binding (equilibrium dialysis). It is filed as in vitro ADME. The conditions noted are these: dialysis 18 hours. In a few lines: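 Fraction unbound (fu %) in human plasma, from LC/MSMS of plasma and buffer sides (7-point plasma calibration) after 18 h rapid equilibrium dialysis. Single determinations, with compounds pooled up to 10 per plasma pool.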
Data set [7] is described as follows: Human Caco-2 bidirectional permeability A to B and B to A. It counts as in vitro ADME. As to conditions: for Papp at 2 h: Caco-2, 2 hours, pH 7.4; for efflux ratio at 2 h: Caco-2, pH 7.4.

≈ marks a conversion by molar mass, not a printed value.

recombinant human Estrogen Receptor alpha ligand binding domain (ER alpha-LBD (GST)), sequence (P03372 307-554): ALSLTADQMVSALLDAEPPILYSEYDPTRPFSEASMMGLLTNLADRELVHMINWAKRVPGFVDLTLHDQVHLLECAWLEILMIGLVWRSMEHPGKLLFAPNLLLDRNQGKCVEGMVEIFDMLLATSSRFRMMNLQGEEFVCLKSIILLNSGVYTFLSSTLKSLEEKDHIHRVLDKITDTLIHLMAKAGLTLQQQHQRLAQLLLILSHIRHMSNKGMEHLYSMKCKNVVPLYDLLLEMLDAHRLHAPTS
estrogen receptor (ERα) in CAMA-1 cells, sequence (P03372 whole entry): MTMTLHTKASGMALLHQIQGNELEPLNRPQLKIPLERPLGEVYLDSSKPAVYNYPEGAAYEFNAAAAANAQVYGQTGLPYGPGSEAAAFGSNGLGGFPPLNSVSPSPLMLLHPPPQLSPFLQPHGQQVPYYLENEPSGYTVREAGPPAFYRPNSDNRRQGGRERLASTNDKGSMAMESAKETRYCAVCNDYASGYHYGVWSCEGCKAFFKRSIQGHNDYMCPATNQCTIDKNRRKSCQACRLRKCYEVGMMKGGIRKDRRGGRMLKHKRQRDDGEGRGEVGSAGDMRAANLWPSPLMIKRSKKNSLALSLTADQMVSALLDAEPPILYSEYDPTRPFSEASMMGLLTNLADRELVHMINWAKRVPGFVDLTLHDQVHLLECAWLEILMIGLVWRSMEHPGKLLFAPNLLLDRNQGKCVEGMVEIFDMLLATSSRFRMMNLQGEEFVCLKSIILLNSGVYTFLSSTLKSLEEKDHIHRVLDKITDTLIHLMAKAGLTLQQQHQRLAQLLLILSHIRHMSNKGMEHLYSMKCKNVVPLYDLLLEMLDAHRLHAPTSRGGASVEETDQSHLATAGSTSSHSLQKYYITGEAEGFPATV
Estrogen Receptor (ERα) in MCF-7 cells, sequence (P03372 whole entry): as above

On to `COc1cc(NC2CN(CCCF)C2)ccc1[C@@H]1c2ccc3[nH]ncc3c2C[C@@H](C)N1CC(F)(F)F` [Example 28, 1-(3-fluoropropyl)-N-(3-methoxy-4-((6S,8R)-8-methyl-7-(2,2,2-trifluoroethyl)-6,7,8,9-tetrahydro-3H-pyrazolo[4,3-f]isoquinolin-6-yl)phenyl)azetidin-3-amine], for which the half-maximal inhibitory concentration (IC50) (in general, the concentration at which inhibition is half-maximal) in data set [1] came out at 5700 pM. In data set [2], this compound came in with an IC50 of 65 pM. Further, in data set [3], the “CAMA1 Western % ER deg vs Fv” value was determined as 110%. Also, the logD (commonly lipophilicity at a set pH, counting ionised and neutral species) in data set [4] is 3.6. Also, the solubility – broadly, the dissolved amount per volume that the medium holds – at 24 h in data set [5] turned out to be 150 µM (≈ 75.8 µg/mL). In data set [6], the “Human plasma protein binding (% free)” value is reported as 6 % free. For the same compound, in data set [7], the Papp (usually the rate of passage across a membrane or cell layer, normalised by area and donor concentration) at 2 h stood at 1.2 ×10⁻⁶ cm/s; the efflux ratio (commonly a quotient of directional permeabilities that is used to spot active efflux) at 2 h turned out to be 3.8.
In the case of `C[C@@H]1Cc2c(ccc3[nH]ncc23)[C@@H](c2ncc(NC3CN(CCCF)C3)cc2F)N1CC(F)(F)F` [Example 30, 5-fluoro-N-(1-(3-fluoropropyl)azetidin-3-yl)-6-((6S,8R)-8-methyl-7-(2,2,2-trifluoroethyl)-6,7,8,9-tetrahydro-3H-pyrazolo[4,3-f]isoquinolin-6-yl)pyridin-3-amine], the IC50 in data set [1] turned out to be 1800 pM. Moreover, the half-inhibitory concentration (IC50) in data set [2] came out at 280 pM. Further, the “CAMA1 Western % ER deg vs Fv” value in data set [3] is reported as 98%. The same compound displayed a logD in data set [4] of 3. In data set [5], this compound showed a solubility at 24 h of 754 µM (≈ 373 µg/mL). Besides, the “Human plasma protein binding (% free)” value in data set [6] was 16 % free. In data set [7], the Papp at 2 h turned out to be 2.7 ×10⁻⁶ cm/s and the efflux ratio at 2 h is 7.8.
Consider `C[C@@H]1Cc2c(ccc3[nH]nc(F)c23)[C@@H](c2ncc(NC3CN(CCCF)C3)cc2F)N1CC(F)(F)F` [Example 33, 5-Fluoro-6-((6S,8R)-1-fluoro-8-methyl-7-(2,2,2-trifluoroethyl)-6,7,8,9-tetrahydro-3H-pyrazolo[4,3-f]isoquinolin-6-yl)-N-(1-(3-fluoropropyl)azetidin-3-yl)pyridin-3-amine], for which the IC50 in data set [1] came to 1400 pM. For the same compound, the IC50 in data set [2] turned out to be 100 pM. In addition, in data set [3], the “CAMA1 Western % ER deg vs Fv” value came out at 102%. In data set [4], this compound displayed a log distribution coefficient (logD) of 3.6. The same compound registered a solubility at 24 h in data set [5] of 466 µM (≈ 239 µg/mL). In addition, in data set [6], the “Human plasma protein binding (% free)” value is given as 5.4 % free. Also, in data set [7], the Papp at 2 h was determined as 2.6 ×10⁻⁶ cm/s and the efflux ratio at 2 h worked out at 1.5.
With `COc1cc(NC2CN(CCCF)C2)ccc1[C@@H]1c2ccc3[nH]ncc3c2C[C@@H](C)N1CC(C)(C)F` [Example 64, N-(4-((6S,8R)-7-(2-fluoro-2-methylpropyl)-8-methyl-6,7,8,9-tetrahydro-3H-pyrazolo[4,3-f]isoquinolin-6-yl)-3-methoxyphenyl)-1-(3-fluoropropyl)azetidin-3-amine], the IC50 was 6100 pM in data set [1] and 220 pM in data set [2]. Moreover, the “CAMA1 Western % ER deg vs Fv” value in data set [3] was 89%. In addition, the logD in data set [4] turned out to be 3.2. The solubility at 24 h in data set [5] worked out at 474 µM (≈ 236 µg/mL). The “Human plasma protein binding (% free)” value in data set [6] is 14 % free. Besides, the apparent permeability (Papp) at 2 h in data set [7] was found to be 2 ×10⁻⁶ cm/s. The efflux ratio at 2 h in data set [7] came to 5.6.

Values taken from US10131663B2, “Chemical compounds” (AstraZeneca AB, priority 2016, dated 2018).
